{
  "source": "patent US20230028880A1",
  "about": "“CD38-BINDING AGENTS AND USES THEREOF” (Biohaven Therapeutics Ltd., priority 2019, published 2023)",
  "test_system": "Daudi cells",
  "experiment": "Intraperitoneal lavage model: CFSE-labelled Daudi cells in SCID mice",
  "assay_type": "in vivo",
  "settings": "I-17 1, 10, 30 mg/kg + IVIG 10 mg/mouse sub-Q, 16-18 hours (FIG. 9)",
  "protocol": "On day 0 animals were weighed and randomized. Mice were assigned to different groups and treated as described below. CFSE labelled Daudi cells were prepared as follows:\n• Reagents used: PBS (Sterile) • Quenching Buffer PBS+10% FBS • RPMI (no additives) no P/S; no FBS • Invitrogen—CellTrace CFSE Cell Proliferation Kit, for Flow Cytometry (Cat#C34570) • Warm the sterile PBS and all other media to 37 degree Celsius before use for all of the following procedures listed below. […]\nAfter 16-18 hours the mice were sacrificed via CO2 asphyxiation and had their peritoneal cavity flushed with 5 mls of PBS with 1% BSA. Samples were processed and analyzed using IP Lavage Processing is described in 00765. Samples were evaluated for tumor cell counts. […]",
  "data": [
    {"compound": "CCCCC[C@@H]1NC(=O)[C@H](CCCNC(=N)N)NC(=O)[C@H](C)NC(=O)CSC[C@@H](C(=O)NCCOCCOCCOCCOCCOCCOCCn2nnc3c2CCC2C(CC3)C2COC(=O)N2CCC(C(=O)NCC(=O)N[C@H](CCC(=O)N[C@H](CCC(=O)N[C@H](CCC(=O)O)C(=O)N[C@H](CCC(=O)N[C@H](CCC(=O)NCC(=O)NCC(=O)N[C@@H](CC(=O)O)C(=O)N[C@H]3CSSC[C@@H](C(=O)N[C@H](C(=O)O)[C@@H](C)O)NC(=O)[C@H](Cc4c[nH]c5ccccc45)NC(=O)[C@H](C(C)C)NC(=O)[C@H](CC(C)C)NC(=O)[C@H](CCC(=O)O)NC(=O)CNC(=O)[C@H](CC(C)C)NC(=O)[C@H](Cc4c[nH]cn4)NC(=O)[C@H](Cc4c[nH]c5ccccc45)NC(=O)[C@H](C)NC3=O)C(=O)O)C(=O)O)C(=O)O)C(=O)O)CC2)NC(=O)[C@H](CC(=O)O)NC(=O)[C@H](CCCCC)NC(=O)[C@H](Cc2ccc(-c3ccccc3)cc2)NC(=O)[C@H](CC(C)C)NC(=O)[C@H](C(C)C)NC(=O)CNC(=O)[C@H](CC(=O)O)NC(=O)[C@H](Cc2c[nH]cn2)NC(=O)[C@H](Cc2ccc(O)cc2)NC1=O", "note": "(stereo partly shown) [I-17]", "values": [
      {"measurement": "number of CD38 expressing Daudi cells in intraperitoneal cavity", "value": "can effectively reduce the number of target cells"}
    ]}
  ]
}
